Experimental findings from US8569484B2, “Heterocyclic urea derivatives and methods of use thereof” (Astrazeneca AB, priority 2009, dated 2013) are described below.

The structures appear in SMILES notation. Where two headings read alike, the source gives them in different places.

For the assay, the target named is S. aureus GyrB ATPase (Staphylococcus aureus, UniProt P0A0K8). Description: S. aureus GyrB ATPase inhibition (ammonium molybdate/malachite green phosphate detection). The assay is classed as biochemical. The note with it: read-out: Percent Inhibition (1 μM). As to the method:
S. aureus GyrB ATPase Inhibition Activity: Compounds may be tested for inhibition of S. aureus GyrB ATPase activity using an ammonium molybdate/malachite green-based phosphate detection assay (Lanzetta, P. A., L. J. Alvarez, P. S. Reinach, and O. A. Candia, 1979, 100: 95-97). Assays can be performed in multiwell plates in 30 μl reactions containing: 50 mM Hepes buffer pH 7.5, 75 mM ammonium acetate, 8.0 mM magnesium chloride, 0.5 mM ethylenediaminetetraacetic acid, 5% glycerol, 1.0 mM 1,4-Dithio-DL-threitol, 200 nM bovine serum albumin, 1.0 μg/ml sheared salmon sperm DNA, 250 pM E. coli GyrA, 250 pM S. aureus GyrB, 250 μM ATP, and compound in dimethylsulfoxide. Reactions can be quenched with 30 μl of ammonium molybdate/malachite green detection reagent containing 1.2 mM malachite green hydrochloride, 8.5 mM ammonium molybdate tetrahydrate, and 1 M hydrochloric acid. Plates can be read in an absorbance plate reader at 650 nm and percent inhibition values can be calculated using dimethylsulfoxide (2%)-containing reactions as 0% inhibition and EDTA-containing ([…]) reactions as 100% inhibition controls. An IC50 measurement of compound potency for each compound can be determined from reactions performed in the presence of 10 different compound concentrations.

Setting [1] is: 1 μM compound, S. aureus GyrB ATPase.

Sequence of S. aureus GyrB ATPase (P0AES4 whole entry): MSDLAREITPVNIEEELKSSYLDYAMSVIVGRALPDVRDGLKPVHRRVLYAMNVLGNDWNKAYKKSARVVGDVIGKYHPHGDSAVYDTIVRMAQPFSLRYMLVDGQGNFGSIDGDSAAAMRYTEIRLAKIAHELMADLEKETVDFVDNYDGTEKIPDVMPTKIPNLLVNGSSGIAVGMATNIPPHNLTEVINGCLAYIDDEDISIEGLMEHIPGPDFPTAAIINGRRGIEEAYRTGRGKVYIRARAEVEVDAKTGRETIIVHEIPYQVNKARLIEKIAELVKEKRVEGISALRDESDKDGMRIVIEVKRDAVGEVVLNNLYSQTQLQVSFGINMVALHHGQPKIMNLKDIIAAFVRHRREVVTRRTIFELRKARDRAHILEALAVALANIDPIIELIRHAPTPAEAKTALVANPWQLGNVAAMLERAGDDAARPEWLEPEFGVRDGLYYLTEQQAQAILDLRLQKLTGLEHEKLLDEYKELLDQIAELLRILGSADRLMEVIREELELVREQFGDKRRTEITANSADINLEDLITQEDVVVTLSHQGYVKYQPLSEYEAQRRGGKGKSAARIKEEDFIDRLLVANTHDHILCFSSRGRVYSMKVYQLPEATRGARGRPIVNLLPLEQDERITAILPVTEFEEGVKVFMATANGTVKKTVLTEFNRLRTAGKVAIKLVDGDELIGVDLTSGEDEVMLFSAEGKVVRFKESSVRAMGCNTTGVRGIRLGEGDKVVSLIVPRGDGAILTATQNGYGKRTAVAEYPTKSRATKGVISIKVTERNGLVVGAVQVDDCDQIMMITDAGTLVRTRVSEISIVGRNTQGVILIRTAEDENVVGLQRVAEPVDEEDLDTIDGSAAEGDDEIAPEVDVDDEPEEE
Sequence of S. aureus GyrB ATPase (P0A0K8 whole entry): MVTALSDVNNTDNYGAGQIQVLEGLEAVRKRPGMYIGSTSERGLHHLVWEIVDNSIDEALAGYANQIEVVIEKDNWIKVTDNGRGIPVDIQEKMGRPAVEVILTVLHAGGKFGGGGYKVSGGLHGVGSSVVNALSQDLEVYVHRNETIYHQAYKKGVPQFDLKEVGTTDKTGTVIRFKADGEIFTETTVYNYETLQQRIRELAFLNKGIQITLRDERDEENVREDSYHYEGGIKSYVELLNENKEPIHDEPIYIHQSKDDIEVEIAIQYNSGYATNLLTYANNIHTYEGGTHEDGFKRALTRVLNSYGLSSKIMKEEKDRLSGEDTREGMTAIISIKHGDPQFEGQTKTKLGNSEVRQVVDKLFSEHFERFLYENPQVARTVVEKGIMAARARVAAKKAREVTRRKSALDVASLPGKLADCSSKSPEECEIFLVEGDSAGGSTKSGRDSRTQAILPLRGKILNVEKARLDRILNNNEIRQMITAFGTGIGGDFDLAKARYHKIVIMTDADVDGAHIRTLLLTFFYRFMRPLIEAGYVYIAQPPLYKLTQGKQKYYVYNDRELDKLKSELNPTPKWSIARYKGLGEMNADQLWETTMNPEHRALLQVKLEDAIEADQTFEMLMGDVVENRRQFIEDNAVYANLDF

With `CCNC(=O)Nc1cc(-c2nc(C(F)(F)F)cs2)c(-c2cnc3c(c2)c(=O)c(C(=O)O)cn3CC2CCN(C)CC2)cn1` [Example 1, 6-(6-(3-Ethylureido)-4-(4-(trifluoromethyl)thiazol-2-yl)pyridin-3-yl)-1-((1-methylpiperidin-4-yl)methyl)-4-oxo-1,4-dihydro-1,8-naphthyridine-3-carboxylic acid], the inhibition at 1 µM under setting [1] amounted to 107%. Take `CCNC(=O)Nc1cc(-c2nc(C(F)(F)F)cs2)c(-c2cnc3c(c2)c(=O)c(C(=O)O)cn3CCC2CCN(C)CC2)cn1` [Example 2, 6-(6-(3-ethylureido)-4-(4-(trifluoromethyl)thiazol-2-yl)pyridin-3-yl)-1-(2-(1-methylpiperidin-4-yl)ethyl)-4-oxo-1,4-dihydro-1,8-naphthyridine-3-carboxylic acid]: the inhibition at 1 µM under setting [1] amounted to 123%. Still for that read-out and setting: the value for `CCNC(=O)Nc1cc(-c2nc(C(F)(F)F)cs2)c(-c2cnc3c(c2)c(=O)c(C(=O)O)cn3CC)cn1` [Example 8, 1-Ethyl-6-{6-[(ethylcarbamoyl)amino]-4-[4-(trifluoromethyl)-1,3-thiazol-2-yl]pyridin-3-yl}-4-oxo-1,4-dihydro-1,8-naphthyridine-3-carboxylic acid] was 98%. In the case of `CCNC(=O)Nc1cc(-c2nc(C(F)(F)F)cs2)c(-c2cnc3c(c2)c(=O)c(C(=O)O)cn3C2CC2)cn1` [Example 9, 1-Cyclopropyl-6-{6-[(ethylcarbamoyl)amino]-4-[4-(trifluoromethyl)-1,3-thiazol-2-yl]pyridin-3-yl}-4-oxo-1,4-dihydro-1,8-naphthyridine-3-carboxylic acid], the inhibition at 1 µM under setting [1] was determined as 96%. For the compound `CCNC(=O)Nc1cc(-c2nc(C(F)(F)F)cs2)c(-c2cnc3c(c2)c(=O)c(C(=O)O)cn3[C@H](CO)CC(C)C)cn1` [Example 11, 6-{6-[(ethylcarbamoyl)amino]-4-[4-(trifluoromethyl)-1,3-thiazol-2-yl]pyridin-3-yl}-1-[(2S)-1-hydroxy-4-methylpentan-2-yl]-4-oxo-1,4-dihydro-1,8-naphthyridine-3-carboxylic acid], under setting [1], the inhibition at 1 µM stood at 104%. On the same count and under the same terms, the value for `CCNC(=O)Nc1cc(-c2nc(C(F)(F)F)cs2)c(-c2cnc3c(c2)c(=O)c(C(=O)O)cn3[C@H](CO)C(C)(C)C)cn1` [Example 12, 6-{6-[(ethylcarbamoyl)amino]-4-[4-(trifluoromethyl)-1,3-thiazol-2-yl]pyridin-3-yl}-1-[(2S)-1-hydroxy-3,3-dimethylbutan-2-yl]-4-oxo-1,4-dihydro-1,8-naphthyridine-3-carboxylic acid] was 104%; that for `CCNC(=O)Nc1cc(-c2nc(C(F)(F)F)cs2)c(-c2cnc3c(c2)c(=O)c(C(=O)O)cn3CCOP(=O)(O)O)cn1` [Example 14, 6-{6-[(ethylcarbamoyl)amino]-4-[4-(trifluoromethyl)-1,3-thiazol-2-yl]pyridin-3-yl}-4-oxo-1-[2-(phosphonooxy)ethyl]-1,4-dihydro-1,8-naphthyridine-3-carboxylic acid] was 103%. Regarding `CCNC(=O)Nc1cc(-c2nc(C(F)(F)F)cs2)c(-c2cnc3c(c2)c(=O)c(C(=O)O)cn3CCN(C)C)cn1` [Example 16, 1-[2-(dimethylamino)ethyl]-6-{6-[(ethylcarbamoyl)amino]-4-[4-(trifluoromethyl)-1,3-thiazol-2-yl]pyridin-3-yl}-4-oxo-1,4-dihydro-1,8-naphthyridine-3-carboxylic acid], the inhibition at 1 µM under setting [1] was 104%. Consider `CCNC(=O)Nc1cc(-c2nc(C(F)(F)F)cs2)c(-c2cnc3c(c2)c(=O)c(C(=O)OCCO)cn3CC)cn1` [Example 17, 2-hydroxyethyl 1-ethyl-6-{6-[(ethylcarbamoyl)amino]-4-[4-(trifluoromethyl)-1,3-thiazol-2-yl]pyridin-3-yl}-4-oxo-1,4-dihydro-1,8-naphthyridine-3-carboxylate], for which the inhibition at 1 µM under setting [1] stood at 106%.

As for `CCNC(=O)Nc1cc(-c2nc(C(F)(F)F)cs2)c(-c2cnc3c(c2)c(=O)c(C(=O)OCCCO)cn3CC)cn1` [Example 18, 3-hydroxypropyl 1-ethyl-6-{6-[(ethylcarbamoyl)amino]-4-[4-(trifluoromethyl)-1,3-thiazol-2-yl]pyridin-3-yl}-4-oxo-1,4-dihydro-1,8-naphthyridine-3-carboxylate], under setting [1], the inhibition at 1 µM was found to be 108%. Take `CCNC(=O)Nc1cc(-c2nc(C(F)(F)F)cs2)c(-c2cnc3c(c2)c(=O)c(C(=O)OCCOP(=O)(O)O)cn3CC)cn1` [Example 20, 2-(phosphonooxy)ethyl 1-ethyl-6-{6-[(ethylcarbamoyl)amino]-4-[4-(trifluoromethyl)-1,3-thiazol-2-yl]pyridin-3-yl}-4-oxo-1,4-dihydro-1,8-naphthyridine-3-carboxylate]: the inhibition at 1 µM came to 104%. As to `CCNC(=O)Nc1cc(-c2nc(C(F)(F)F)cs2)c(-c2cnc3c(c2)c(=O)c(C(=O)OCCCOP(=O)(O)O)cn3CC)cn1` [Example 22, 3-(Phosphonooxy)propyl 1-ethyl-6-{6-[(ethylcarbamoyl)amino]-4-[4-(trifluoromethyl)-1,3-thiazol-2-yl]pyridin-3-yl}-4-oxo-1,4-dihydro-1,8-naphthyridine-3-carboxylate], the inhibition at 1 µM under setting [1] was 104%.

Regarding `CCNC(=O)Nc1cc(-c2nc(C(F)(F)F)cs2)c(-c2cnc3c(c2)c(=O)c(C(=O)O)cn3[C@H](COP(=O)(O)O)CC(C)C)cn1` [Example 25, 6-{6-[(ethylcarbamoyl)amino]-4-[4-(trifluoromethyl)-1,3-thiazol-2-yl]pyridin-3-yl}-1-[(2S)-4-methyl-1-(phosphonooxy)pentan-2-yl]-4-oxo-1,4-dihydro-1,8-naphthyridine-3-carboxylic acid], the inhibition at 1 µM under setting [1] stood at 108%. Consider `CCNC(=O)Nc1cc(-c2nc(C(F)(F)F)cs2)c(-c2cnc3c(c2)c(=O)c(C(=O)O)cn3[C@@H]2CCCN(CCN3CCOCC3)C2)cn1` [Example 29], for which the inhibition at 1 µM stood at 105%. As to `CCNC(=O)Nc1cc(-c2nc(C(F)(F)F)cs2)c(-c2cnc3c(c2)c(=O)c(C(=O)O)cn3[C@H]2CCCN(CCN3CCOCC3)C2)cn1` [Example 31], the inhibition at 1 µM under setting [1] is 104%. As for `CCNC(=O)Nc1cc(-c2nc(C(F)(F)F)cs2)c(-c2cnc3c(c2)c(=O)c(C(=O)O)cn3C[C@@H]2CCCN2CC)cn1` [Example 32], the inhibition at 1 µM under setting [1] was determined as 103%. With `CCNC(=O)Nc1cc(-c2nc(C(F)(F)F)cs2)c(-c2cnc3c(c2)c(=O)c(C(=O)O)cn3C[C@H]2CCCN2CC)cn1` [Example 33], the inhibition at 1 µM under setting [1] came out at 102%.

For `CCNC(=O)Nc1cc(-c2nc(CC(C)C)cs2)c(-c2cnc3c(c2)c(=O)c(C(=O)O)cn3[C@H]2CCCN(CCN(CC)CC)C2)cn1` [Example 34, (S)-1-(1-(2-(diethylamino)ethyl)piperidin-3-yl)-6-(6-(3-ethylureido)-4-(4-isobutylthiazol-2-yl)pyridin-3-yl)-4-oxo-1,4-dihydro-1,8-naphthyridine-3-carboxylic acid], the inhibition at 1 µM under setting [1] is 103%. In the case of `CCNC(=O)Nc1cc(-c2nc(-c3ccccc3)cs2)c(-c2cnc3c(c2)c(=O)c(C(=O)O)cn3[C@H]2CCCN(CCN(CC)CC)C2)cn1` [Example 35], under setting [1], the inhibition at 1 µM was 102%.

As a reminder, the inhibition is the relative decrease from the control value, in per cent.
